From patent US11116771B2, “G protein-coupled receptor (GPCR) modulation by imipridones” (Oncoceutics, Inc., priority 2016, dated 2021)
Counter-ions that a name gives are not always drawn.

Tests used:
[1] = target: DRD2 alanine-scan mutation library (Homo sapiens, UniProt P14416, A177S)
[2] = target: DRD2 alanine-scan mutation library (Homo sapiens, UniProt P14416, C107A)
[3] = target: DRD2 alanine-scan mutation library (Homo sapiens, UniProt P14416, C118A)
[4] = target: DRD2 alanine-scan mutation library (Homo sapiens, UniProt P14416, C182A)
[5] = target: DRD2 alanine-scan mutation library (Homo sapiens, UniProt P14416, D114A)
[6] = target: DRD2 alanine-scan mutation library (Homo sapiens, UniProt P14416, D80A)
[7] = target: DRD2 alanine-scan mutation library (Homo sapiens, UniProt P14416, E248A)
[8] = target: DRD2 alanine-scan mutation library (Homo sapiens, UniProt P14416, E95A)
[9] = target: DRD2 alanine-scan mutation library (Homo sapiens, UniProt P14416, F189A)
[10] = target: DRD2 alanine-scan mutation library (Homo sapiens, UniProt P14416, F198A)
[11] = target: DRD2 alanine-scan mutation library (Homo sapiens, UniProt P14416, H393A)
[12] = target: DRD2 alanine-scan mutation library (Homo sapiens, UniProt P14416, I122A)
[13] = target: DRD2 alanine-scan mutation library (Homo sapiens, UniProt P14416, I128A)
[14] = target: DRD2 alanine-scan mutation library (Homo sapiens, UniProt P14416, I184A)
[15] = target: DRD2 alanine-scan mutation library (Homo sapiens, UniProt P14416, I377A)
[16] = target: DRD2 alanine-scan mutation library (Homo sapiens, UniProt P14416, I394A)
[17] = target: DRD2 alanine-scan mutation library (Homo sapiens, UniProt P14416, I397A)
[18] = target: DRD2 alanine-scan mutation library (Homo sapiens, UniProt P14416, L125A)
[19] = target: DRD2 alanine-scan mutation library (Homo sapiens, UniProt P14416, L81A)
[20] = target: DRD2 alanine-scan mutation library (Homo sapiens, UniProt P14416, N23A)
[21] = target: DRD2 alanine-scan mutation library (Homo sapiens, UniProt P14416, R132A)
[22] = target: DRD2 alanine-scan mutation library (Homo sapiens, UniProt P14416, S121A)
[23] = target: DRD2 alanine-scan mutation library (Homo sapiens, UniProt P14416, S193A)
[24] = target: DRD2 alanine-scan mutation library (Homo sapiens, UniProt P14416, S197A)
[25] = target: DRD2 alanine-scan mutation library (Homo sapiens, UniProt P14416, S419A)
[26] = target: DRD2 alanine-scan mutation library (Homo sapiens, UniProt P14416, S7A)
[27] = target: DRD2 alanine-scan mutation library (Homo sapiens, UniProt P14416, T119A)
[28] = target: DRD2 alanine-scan mutation library (Homo sapiens, UniProt P14416, T165A)
[29] = target: DRD2 alanine-scan mutation library (Homo sapiens, UniProt P14416, T205A)
[30] = target: DRD2 alanine-scan mutation library (Homo sapiens, UniProt P14416, V190A)
[31] = target: DRD2 alanine-scan mutation library (Homo sapiens, UniProt P14416, V196A)
[32] = target: DRD2 alanine-scan mutation library (Homo sapiens, UniProt P14416, V83A)
[33] = target: DRD2 alanine-scan mutation library (Homo sapiens, UniProt P14416, V91A)
[34] = target: DRD2 alanine-scan mutation library (Homo sapiens, UniProt P14416, W386A)
[35] = target: DRD2 alanine-scan mutation library (Homo sapiens, UniProt P14416, Y192A)
[36] = target: DRD2 alanine-scan mutation library (Homo sapiens, UniProt P14416, Y199A)
[37] = target: DRD2 alanine-scan mutation library (Homo sapiens, UniProt P14416, Y416A)
[38] = tested on: Staphylococcus aureus ATCC# 6538
[39] = tested on: Pseudomonas aeruginosa ATCC# 9027; settings: 1:300 with TSB Mod Dilution; inoculum count 28
[40] = tested on: Bacillus subtilis ATCC# 6633; settings: 1:300 with TSB Mod Dilution; inoculum count 52
[41] = tested on: Candida albicans ATCC# 10231; settings: 1:300 with TSB Mod Dilution
[42] = tested on: Aspergillus brasiliensis ATCC# 16404; settings: 1:300 with TSB Mod Dilution

Sequence of DRD2 alanine-scan mutation library (Homo sapiens, UniProt P14416, R132A) (P14416 whole entry R132A): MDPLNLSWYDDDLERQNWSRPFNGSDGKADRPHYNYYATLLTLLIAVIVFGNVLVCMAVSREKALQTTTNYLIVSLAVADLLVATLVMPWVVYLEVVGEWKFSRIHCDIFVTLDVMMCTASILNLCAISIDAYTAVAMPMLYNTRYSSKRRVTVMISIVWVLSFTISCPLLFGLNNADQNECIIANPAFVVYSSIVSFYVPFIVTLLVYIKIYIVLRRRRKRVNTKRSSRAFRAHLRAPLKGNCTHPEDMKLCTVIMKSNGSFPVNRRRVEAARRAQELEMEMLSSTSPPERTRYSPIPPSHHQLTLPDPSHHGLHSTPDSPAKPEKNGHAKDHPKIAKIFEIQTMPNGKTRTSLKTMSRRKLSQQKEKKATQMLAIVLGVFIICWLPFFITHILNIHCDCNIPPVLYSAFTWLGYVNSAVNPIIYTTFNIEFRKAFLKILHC
Sequence of DRD2 alanine-scan mutation library (Homo sapiens, UniProt P14416, I394A) (P14416 whole entry I394A): as the sequence (P14416 whole entry R132A) above, with A132R, I394A counted along it
Sequence of DRD2 alanine-scan mutation library (Homo sapiens, UniProt P14416, V190A) (P14416 whole entry V190A): as the sequence (P14416 whole entry R132A) above, with A132R, V190A counted along it
Sequence of DRD2 alanine-scan mutation library (Homo sapiens, UniProt P14416, Y416A) (P14416 whole entry Y416A): as the sequence (P14416 whole entry R132A) above, with A132R, Y416A counted along it
Sequence of DRD2 alanine-scan mutation library (Homo sapiens, UniProt P14416, C118A) (P14416 whole entry C118A): as the sequence (P14416 whole entry R132A) above, with C118A, A132R counted along it
Sequence of DRD2 alanine-scan mutation library (Homo sapiens, UniProt P14416, T119A) (P14416 whole entry T119A): as the sequence (P14416 whole entry R132A) above, with T119A, A132R counted along it
Sequence of DRD2 alanine-scan mutation library (Homo sapiens, UniProt P14416, C107A) (P14416 whole entry C107A): as the sequence (P14416 whole entry R132A) above, with C107A, A132R counted along it
Sequence of DRD2 alanine-scan mutation library (Homo sapiens, UniProt P14416, F189A) (P14416 whole entry F189A): as the sequence (P14416 whole entry R132A) above, with A132R, F189A counted along it
Sequence of DRD2 alanine-scan mutation library (Homo sapiens, UniProt P14416, A177S) (P14416 whole entry A177S): as the sequence (P14416 whole entry R132A) above, with A132R, A177S counted along it
Sequence of DRD2 alanine-scan mutation library (Homo sapiens, UniProt P14416, I128A) (P14416 whole entry I128A): as the sequence (P14416 whole entry R132A) above, with I128A, A132R counted along it
Sequence of DRD2 alanine-scan mutation library (Homo sapiens, UniProt P14416, S7A) (P14416 whole entry S7A): as the sequence (P14416 whole entry R132A) above, with S7A, A132R counted along it

Question: With `NCCc1ccc(O)c(O)c1` [Dopamine, dopamine] as the molecule, how does the “Calcium Flux as a % of flux with WT DRD2 (100), Dopamine 1 nM” value (from here on “Calcium Flux as a % of flux with WT DRD2”) [1] read?
Answer: 85%

Question: What about the “Calcium Flux % WT” value [2] of the same molecule?
Answer: 20 % WT

Question: What about the “Calcium Flux % WT” value [3] of the same molecule?
Answer: 14 % WT

Question: What about the “Calcium Flux % WT” value [4] of the same molecule?
Answer: 0 % WT

Question: And the “Calcium Flux % WT” value [5]?
Answer: 4 % WT

Question: And the “Calcium Flux % WT” value [6]?
Answer: 3 % WT

Question: What about the “Calcium Flux % WT” value [7] of the same molecule?
Answer: 19 % WT

Question: What about the “Calcium Flux as a % of flux with WT DRD2” value [8] of the same molecule?
Answer: 123%

Question: What about the “Calcium Flux % WT” value [9] of the same molecule?
Answer: 22 % WT

Question: And the “Calcium Flux % WT” value [10]?
Answer: 10 % WT

Question: And the “Calcium Flux % WT” value [11]?
Answer: 4 % WT

Question: What about the “Calcium Flux % WT” value [12] of the same molecule?
Answer: 23 % WT

Question: And the “Calcium Flux % WT” value [13]?
Answer: 27 % WT

Question: And the “Calcium Flux % WT” value [14]?
Answer: 0 % WT

Question: What about the “Calcium Flux % WT” value [15] of the same molecule?
Answer: 11 % WT

Question: And the “Calcium Flux % WT” value [16]?
Answer: 16 % WT

Question: And the “Calcium Flux as a % of flux with WT DRD2” value [17]?
Answer: 105%

Question: What about the “Calcium Flux % WT” value [18] of the same molecule?
Answer: 25 % WT

Question: And the “Calcium Flux as a % of flux with WT DRD2” value [19]?
Answer: 83%

Question: What about the “Calcium Flux % WT” value [20] of the same molecule?
Answer: 25 % WT

Question: What about the “Calcium Flux % WT” value [21] of the same molecule?
Answer: 3 % WT

Question: And the “Calcium Flux % WT” value [22]?
Answer: 16 % WT

Question: And the “Calcium Flux % WT” value [23]?
Answer: 1 % WT

Question: And the “Calcium Flux % WT” value [24]?
Answer: 0 % WT

Question: What about the “Calcium Flux % WT” value [25] of the same molecule?
Answer: 20 % WT

Question: And the “Calcium Flux % WT” value [26]?
Answer: 15 % WT

Question: And the “Calcium Flux % WT” value [27]?
Answer: 1 % WT

Question: What about the “Calcium Flux as a % of flux with WT DRD2” value [28] of the same molecule?
Answer: 92%

Question: And the “Calcium Flux % WT” value [29]?
Answer: 24 % WT

Question: And the “Calcium Flux % WT” value [30]?
Answer: 20 % WT

Question: And the “Calcium Flux as a % of flux with WT DRD2” value [31]?
Answer: 119%

Question: And the “Calcium Flux % WT” value [32]?
Answer: 10 % WT

Question: And the “Calcium Flux as a % of flux with WT DRD2” value [33]?
Answer: 119%

Question: And the “Calcium Flux % WT” value [34]?
Answer: 15 % WT

Question: And the “Calcium Flux as a % of flux with WT DRD2” value [35]?
Answer: 64%

Question: And the “Calcium Flux % WT” value [36]?
Answer: 20 % WT

Question: And the “Calcium Flux % WT” value [37]?
Answer: 12 % WT

Question: Which results are given for `Cc1ccccc1CN1C(=O)C2=C(CCN(Cc3ccccc3)C2)N2CCN=C12` [ONC201 dihydrochloride]?
Answer: Indicator Organisms Count, Sa [38]: 0; Indicator Organisms Count, Pa [39]: 24; Indicator Organisms Count, Bs [40]: 48; Indicator Organisms Count, Ca (TSA) ([41]; inoculum count 48): 51; Indicator Organisms Count, CA (SDA) ([41]; inoculum count 52): 46; Indicator Organisms Count, Ab (SDA) ([42]; inoculum count 20): 19; Indicator Organisms Count, Ab (TSA) ([42]; inoculum count 21): 18
